PubChem BioAssay AID328 (DTP/NCI, 2004)
“And” between values parts separate entries of the source, which are not always exact repeats. Identical values can stand only once. Toxic doses and inconclusive results are not listed.

System: BDF1 mice, P388 leukemia ip, median survival T/C
Assay: NCI In Vivo Anticancer Drug Screen. Data for tumor model P388 Leukemia (intraperitoneal) in B6D2F1 (BDF1) mice
Settings: endpoint: median survival time, higher = longer survival
Outline: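 Each value expresses how treatment altered survival: treated-mouse outcome over vehicle-mouse outcome, both groups bearing the transplanted tumour.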

[1] = dose: 6.25 mg/kg/injection, schedule: Q01DX009 (ip), vehicle: saline with Tween-80
[2] = dose: 12.5 mg/kg/injection, schedule: Q01DX009 (ip), vehicle: saline with Tween-80
[3] = dose: 25.0 mg/kg/injection, schedule: Q01DX009 (ip), vehicle: saline with Tween-80
[4] = dose: 50.0 mg/kg/injection, schedule: Q01DX009 (ip), vehicle: saline with Tween-80
[5] = dose: 100.0 mg/kg/injection, schedule: Q01DX009 (ip), vehicle: saline with Tween-80
[6] = dose: 200.0 mg/kg/injection, schedule: Q04DX003 (ip), vehicle: Klucel (hydroxypropylcellulose) (HPC)
[7] = dose: 100.0 mg/kg/injection, schedule: Q04DX003 (ip), vehicle: Klucel (hydroxypropylcellulose) (HPC)
[8] = dose: 100.0 mg/kg/injection, schedule: Q04DX003 (ip), vehicle: saline with Tween-80
[9] = dose: 200.0 mg/kg/injection, schedule: Q04DX003 (ip), vehicle: saline with Tween-80
[10] = dose: 400.0 mg/kg/injection, schedule: Q04DX003 (ip), vehicle: saline with Tween-80
[11] = dose: 50.0 mg/kg/injection, schedule: Q01DX009 (ip), vehicle: saline
[12] = dose: 100.0 mg/kg/injection, schedule: Q01DX009 (ip), vehicle: saline
[13] = dose: 200.0 mg/kg/injection, schedule: Q01DX009 (ip), vehicle: saline
[14] = dose: 200.0 mg/kg/injection, schedule: Q01DX009 (ip), vehicle: saline with Tween-80

COC1C(O)C(C)OC(OC2C(Oc3cccc4c(O)c5c(=O)oc6ccc(C)c7c(=O)oc(c34)c5c67)OC(C)C(O)C2O)C1O (configuration not stated) was tested, and the T/C (dose: 0.39 mg/kg/injection, schedule: Q01DX009 (ip), vehicle: other) was 98 % of control and 121 % of control, the T/C (dose: 0.39 mg/kg/injection, schedule: Q01DX009 (oral), vehicle: Klucel (hydroxypropylcellulose) (HPC)) was 110 % of control and the T/C (dose: 0.78 mg/kg/injection, schedule: Q01DX009 (ip), vehicle: other) was 104 % of control. For the same compound, the T/C (dose: 0.78 mg/kg/injection, schedule: Q01DX009 (oral), vehicle: Klucel (hydroxypropylcellulose) (HPC)) was 100 % of control, the T/C (dose: 1.56 mg/kg/injection, schedule: Q01DX009 (ip), vehicle: other) was 106 % of control and the T/C (dose: 1.56 mg/kg/injection, schedule: Q01DX009 (oral), vehicle: Klucel (hydroxypropylcellulose) (HPC)) was 98 % of control and 104 % of control. The T/C (dose: 3.12 mg/kg/injection, schedule: Q01DX009 (ip), vehicle: Klucel (hydroxypropylcellulose) (HPC)) was 159 % of control, the T/C (dose: 3.12 mg/kg/injection, schedule: Q01DX009 (ip), vehicle: other) was 159 % of control and the T/C (dose: 3.12 mg/kg/injection, schedule: Q01DX009 (oral), vehicle: Klucel (hydroxypropylcellulose) (HPC)) was 109 % of control and 110 % of control. For the same compound, the T/C (dose: 3.13 mg/kg/injection, schedule: Q01DX009 (ip), vehicle: saline with Tween-80) was 162 % of control, the T/C (dose: 6.25 mg/kg/injection, schedule: Q01DX009 (ip), vehicle: Klucel (hydroxypropylcellulose) (HPC)) was 173 % of control and the T/C (dose: 6.25 mg/kg/injection, schedule: Q01DX009 (ip), vehicle: other) was 200 % of control. For the same compound, the T/C [1] was 217 % of control, the T/C (dose: 6.25 mg/kg/injection, schedule: Q01DX009 (oral), vehicle: Klucel (hydroxypropylcellulose) (HPC)) was 101 % of control and 106 % of control and the T/C (dose: 8.0 mg/kg/injection, schedule: Q04DX003 (ip), vehicle: saline with Tween-80) was 150 % of control. The T/C (dose: 12.5 mg/kg/injection, schedule: Q01DX009 (ip), vehicle: Klucel (hydroxypropylcellulose) (HPC)) was 209 % of control, the T/C (dose: 12.5 mg/kg/injection, schedule: Q01DX009 (ip), vehicle: other) was 156 % of control and 165 % of control and 205 % of control and the T/C [2] was 190 % of control and 199 % of control. For the same compound, the T/C (dose: 12.5 mg/kg/injection, schedule: Q01DX009 (oral), vehicle: Klucel (hydroxypropylcellulose) (HPC)) was 103 % of control and 105 % of control, the T/C (dose: 16.0 mg/kg/injection, schedule: Q04DX003 (ip), vehicle: saline with Tween-80) was 173 % of control and the T/C (dose: 25.0 mg/kg/injection, schedule: Q01DX009 (ip), vehicle: Klucel (hydroxypropylcellulose) (HPC)) was 221 % of control. For the same compound, the T/C (dose: 25.0 mg/kg/injection, schedule: Q01DX009 (ip), vehicle: other) was 167 % of control and 215 % of control, the T/C [3] was 236 % of control and 210 % of control and the T/C (dose: 25.0 mg/kg/injection, schedule: Q01DX009 (oral), vehicle: Klucel (hydroxypropylcellulose) (HPC)) was 100 % of control and 105 % of control. For the same compound, the T/C (dose: 32.0 mg/kg/injection, schedule: Q04DX003 (ip), vehicle: saline with Tween-80) was 172 % of control, the T/C (dose: 43.2 mg/kg/injection, schedule: Q04DX003 (ip), vehicle: Klucel (hydroxypropylcellulose) (HPC)) was 170 % of control and the T/C (dose: 43.2 mg/kg/injection, schedule: Q04DX003 (ip), vehicle: acid diluted with saline) was 153 % of control. The T/C (dose: 50.0 mg/kg/injection, schedule: Q01DX009 (ip), vehicle: Klucel (hydroxypropylcellulose) (HPC)) was 221 % of control, the T/C (dose: 50.0 mg/kg/injection, schedule: Q01DX009 (ip), vehicle: other) was 231 % of control and 193 % of control and the T/C [4] was 190 % of control. For the same compound, the T/C (dose: 50.0 mg/kg/injection, schedule: Q01DX009 (oral), vehicle: Klucel (hydroxypropylcellulose) (HPC)) was 103 % of control and 111 % of control, the T/C (dose: 64.0 mg/kg/injection, schedule: Q04DX003 (ip), vehicle: saline with Tween-80) was 175 % of control and the T/C (dose: 72.0 mg/kg/injection, schedule: Q04DX003 (ip), vehicle: Klucel (hydroxypropylcellulose) (HPC)) was 173 % of control. For the same compound, the T/C (dose: 72.0 mg/kg/injection, schedule: Q04DX003 (ip), vehicle: acid diluted with saline) was 173 % of control, the T/C (dose: 100.0 mg/kg/injection, schedule: Q01DX009 (ip), vehicle: Klucel (hydroxypropylcellulose) (HPC)) was 170 % of control and the T/C [5] was 190 % of control and 220 % of control. For the same compound, the T/C (dose: 100.0 mg/kg/injection, schedule: Q01DX009 (oral), vehicle: Klucel (hydroxypropylcellulose) (HPC)) was 104 % of control, the T/C (dose: 120.0 mg/kg/injection, schedule: Q04DX003 (ip), vehicle: Klucel (hydroxypropylcellulose) (HPC)) was 184 % of control and the T/C (dose: 120.0 mg/kg/injection, schedule: Q04DX003 (ip), vehicle: acid diluted with saline) was 180 % of control. The T/C (dose: 128.0 mg/kg/injection, schedule: Q04DX003 (ip), vehicle: saline with Tween-80) was 182 % of control, the T/C (dose: 200.0 mg/kg/injection, schedule: Q01DX009 (oral), vehicle: Klucel (hydroxypropylcellulose) (HPC)) was 105 % of control and the T/C [6] was 175 % of control. The T/C (dose: 200.0 mg/kg/injection, schedule: Q04DX003 (ip), vehicle: acid diluted with saline) was 173 % of control.
C=C(C)c1cc2c(cc1O)OCC2C (configuration not stated) was tested, and the T/C [7] was 92 % of control, the T/C (dose: 300.0 mg/kg/injection, schedule: Q01DX009 (ip), vehicle: Klucel (hydroxypropylcellulose) (HPC)) was 90 % of control and the T/C (dose: 400.0 mg/kg/injection, schedule: Q04DX003 (ip), vehicle: Klucel (hydroxypropylcellulose) (HPC)) was 92 % of control.
With CC1=C(/C=C/C(C)=C/C=C/C(C)=C/C(=O)O)C(C)(C)CCC1 the T/C [1] was 95 % of control, the T/C [2] was 104 % of control and the T/C [3] was 104 % of control.
For CCOC(=O)/C(C#N)=C/c1cc2c3c(c1)CCCN3CCC2, the T/C [8] was 90 % of control, the T/C [9] was 90 % of control and the T/C [10] was 86 % of control.
CCB(CC)OCC1OB(CC)OC1C1OB(CC)OC1COB(CC)CC (configuration not stated) was tested, and the T/C [11] was 99 % of control, the T/C [12] was 97 % of control and the T/C [13] was 99 % of control.
[I][Hg][CH2]C1OCCOC1[CH2][Hg][I] (configuration not stated) was tested, and the T/C [5] was 116 % of control and the T/C [14] was 116 % of control.
For CO/N=C/c1cccnc1, the T/C (dose: 50.0 mg/kg/injection, schedule: Q01DX005 (ip), vehicle: saline) was 101 % of control and the T/C (dose: 100.0 mg/kg/injection, schedule: Q01DX005 (ip), vehicle: saline) was 105 % of control.
For O=C(O)C1C2C=CC(C3C=CC32)C1C(=O)O (configuration not stated), the T/C (dose: 25.0 mg/kg/injection, schedule: Q01DX009 (ip), vehicle: saline) was 97 % of control, the T/C [11] was 93 % of control and the T/C [12] was 97 % of control. For the same compound, the T/C [13] was 96 % of control and the T/C (dose: 400.0 mg/kg/injection, schedule: Q01DX009 (ip), vehicle: saline) was 102 % of control.
For COC(OC)c1nc(N)[nH]c(=O)c1Cc1ccc(C)c2ccccc12, the T/C [5] was 96 % of control, the T/C [8] was 109 % of control and the T/C [14] was 88 % of control. The T/C [9] was 100 % of control and the T/C [10] was 100 % of control.
For Nc1c(Br)cc(Br)c(C(=O)O)c1Br, the T/C (dose: 50.0 mg/kg/injection, schedule: Q04DX003 (ip), vehicle: Klucel (hydroxypropylcellulose) (HPC)) was 100 % of control, the T/C [7] was 100 % of control and the T/C [6] was 95 % of control.
In the case of NC(Cc1c[nH]c2ccccc12)C(=O)OCc1ccccc1 (configuration not stated), the T/C (dose: 3.12 mg/kg/injection, schedule: Q01DX009 (ip), vehicle: water) was 106 % of control, the T/C (dose: 3.12 mg/kg/injection, schedule: Q04DX003 (ip), vehicle: water) was 100 % of control and the T/C (dose: 6.25 mg/kg/injection, schedule: Q01DX009 (ip), vehicle: water) was 101 % of control. The T/C (dose: 6.25 mg/kg/injection, schedule: Q04DX003 (ip), vehicle: water) was 88 % of control, the T/C (dose: 12.5 mg/kg/injection, schedule: Q01DX009 (ip), vehicle: water) was 93 % of control and the T/C (dose: 12.5 mg/kg/injection, schedule: Q04DX003 (ip), vehicle: water) was 123 % of control. The T/C (dose: 25.0 mg/kg/injection, schedule: Q01DX009 (ip), vehicle: water) was 97 % of control, the T/C (dose: 25.0 mg/kg/injection, schedule: Q04DX003 (ip), vehicle: water) was 108 % of control and the T/C (dose: 50.0 mg/kg/injection, schedule: Q01DX009 (ip), vehicle: water) was 92 % of control. For the same compound, the T/C (dose: 50.0 mg/kg/injection, schedule: Q04DX003 (ip), vehicle: water) was 97 % of control, the T/C (dose: 100.0 mg/kg/injection, schedule: Q01DX009 (ip), vehicle: water) was 101 % of control and the T/C (dose: 200.0 mg/kg/injection, schedule: Q01DX009 (ip), vehicle: water) was 110 % of control.
With OC1CCCCCCCCC1Cl (configuration not stated) the T/C [3] was 104 % of control, the T/C [4] was 109 % of control and the T/C [5] was 100 % of control.
